The numbers were not newly measured in patent US20080226715A1, “THERAPEUTIC COMPOSITIONS AND METHODS” (priority 2007, published 2008), which cites them from elsewhere.

The term bioavailability denotes dose-corrected exposure relative to a reference, in per cent.

The conditions of series [1]: after oral dosing; normal subjects.
For series [2] the following is noted: in vivo.

For the compound `CC(=O)Oc1ccccc1C(=O)O` [aspirin], the “time of peak plasma concentrations” value in series [1] is listed as “about 1 hour”.
As for `O=C(O)CCc1nc(-c2ccccc2)c(-c2ccccc2)o1` [Oxaprozin], in series [2], the bioavailability is 95% and the pharmacokinetics half-life is 42 to 50 h.
Consider `CC(=O)Nc1ccc(O)cc1` [acetaminophen], for which, in series [1], the “time of peak plasma concentrations” value is “about 1 hour”.
